Test results from patent US4416871A, “Inhibition by peptides of tolerance to and physical dependence on morphine” (The United States of America as represented by the …, priority 1982, dated 1983).
Entries after “also recorded” stand apart in the source; their conditions may differ. No end group written: not given here. *: point of attachment. Cbz = O=C(OCc1ccccc1)*

How the values were obtained:
[1] = literature, Life Sci., 19, 1331-1340; cited from earlier work
morphine-dependent mice [2] = test: Naloxone-precipitated withdrawal: body temperature and withdrawal signs; format: in vivo; details: for Withdrawal, % of control (jumping, shakes, diarrhea) / Δt, °C. (difference in body temperature just prior to naloxone and 30 min. thereafter): Table II, peptide 50 μg per mouse, naloxone 0.1 mg/kg; for Δt, °C. (difference in body temperature just prior to naloxone and 30 min. thereafter): mean ± SD; for Withdrawal, % of control / Δt, °C. / lowest dose still effective in blocking physical dependence on morphine: Table III; for Withdrawal, % of control / Δt, °C.: dose 50 μg; for lowest dose still effective in blocking physical dependence on morphine: dose-response experiments; for ability to block development of physical dependence on morphine: naloxone-precipitated withdrawal, Tables II and III
Protocol: The mice were randomly divided into two groups. One received SC injections of water (vehicle) while the other received the peptide under investigation (50 μg/mouse on day one). Two hours later the mice were further subdivided and each subgroup was implanted with placebo or morphine pellets. The injections of vehicle and peptide were repeated 24 and 48 hours after the first injection in their respective groups. Morphine pellets containing 75 mg of morphine free base were implanted subcutaneously (SC) between 10-11 A.M. and were removed 3 days later at the same time. The control animals were implanted with placebo pellets. Body temperature and weight were measured daily at 11 A.M. Temperature was measured using a lubricated rectal probe inserted 2.5 cm into the rectum and measured with a telethermometer (Model 43TA Yellow Springs Instrument Co., Yellow Springs, Ohio).
To determine the effects of peptide treatment on the development of physical dependence, the abstinence syndrome was precipitated using the morphine antagonist naloxone (Endo Laboratories Inc., N.Y.) at the appropriate dose (0.1, 0.25, or 0.50 mg/kg) injected intraperitoneally (IP) one hour following removal of morphine and placebo pellets. Pellet removal was performed 24 hours after the last peptide injection. These mice were monitored for changes in body temperature (see above) and body weight at 15 min. intervals for one hour after the naloxone injection. Effects of removing the pellets (withdrawing morphine) were also assessed by utilizing body temperature and weight as physical dependence parameters; however, these measurements were made at 2 hour intervals for 10 hours after the removal of the pellets. Placebo implanted mice were treated in the same manner as the morphine pellet implanted mice.

morphine-dependent mice [3] = test: as above; format: in vivo; details: Table III

Compound	relative potency in facilitating development of physical dependence on and tolerance to morphine [1]	Withdrawal, % of control (jumping, shakes, diarrhea) (morphine-dependent mice [2]) [%]	Δt, °C. (difference in body temperature just prior to naloxone and 30 min. thereafter) (morphine-dependent mice [2])	Withdrawal, % of control (morphine-dependent mice [2]) [%]	Δt, °C. (morphine-dependent mice [2])	lowest dose still effective in blocking physical dependence on morphine (morphine-dependent mice [2]) [μg per mouse]	ability to block development of physical dependence on morphine (morphine-dependent mice [2])	Withdrawal, % of control (morphine-dependent mice [3]; dose 0.05 μg) [%]	Δt, °C. (morphine-dependent mice [3]; dose 0.05 μg)	Withdrawal, % of control (morphine-dependent mice [3]; dose 0.5 μg) [%]	Δt, °C. (morphine-dependent mice [3]; dose 0.5 μg)	Withdrawal, % of control (morphine-dependent mice [3]; dose 5 μg) [%]	Δt, °C. (morphine-dependent mice [3]; dose 5 μg)
8-arginine vasotocin	more effective than 8-arginine vasopressin	–	–	–	–	–	–	–	–	–	–	–	–
CC(C)C[C@@H]1NC(=O)CNC1=O [Cyclo(Leu--Gly), cyclo(leucyl-glycine)]	as effective as oxytocin	21	-0.02 ± 0.83 °C	18	-0.19 ± 0.58 °C	≤ 0.05	showed significant activity; also recorded: most potent peptides tested	20	+0.27 ± 0.70 °C	0	+0.30 ± 0.29 °C	0	+0.47 ± 0.32 °C
CC[C@H](C)[C@@H]1NC(=O)[C@H](Cc2ccc(O)cc2)NC(=O)[C@@H](N)CSSC[C@@H](C(=O)N2CCC[C@H]2C(=O)N[C@@H](CC(C)C)C(=O)NCC(N)=O)NC(=O)[C@H](CC(N)=O)NC(=O)[C@H](CCC(N)=O)NC1=O [oxytocin]	more effective than 8-arginine vasopressin	–	–	–	–	–	–	–	–	–	–	–	–
Cbz-Pro-Leu	–	22	+0.08 ± 0.93 °C	18	+0.08 ± 0.93 °C	5	exhibited activity	–	–	100	-1.17 ± 0.17 °C	0	+0.33 ± 0.26 °C
Cbz-Pro-Phe	–	89	-1.03 ± 0.55 °C	99	-1.03 ± 0.55 °C	–	–	100	-1.60 ± 0.69 °C	100	-0.69 ± 0.22 °C	100	-0.69 ± 0.24 °C
Z-D-Pro--D-Leu	–	0	+0.10 ± 0.56 °C	–	–	–	exhibited activity	–	–	–	–	–	–
Z-Pro--D-Ala--DCHA	–	50	-0.55 ± 0.90 °C	–	–	–	–	–	–	–	–	–	–
Z-Pro--Leu--Gly--N(CH3)2	–	100	-0.47 ± 0.15 °C	–	–	–	–	–	–	–	–	–	–
Z-Pro--ΔPhe	–	22	-0.36 ± 0.58 °C	–	–	–	–	–	–	–	–	–	–
